System: sDMA
Test: Western blot of PRMT5 substrate sDMA in MV-4-11 cells
Assay type: cell-based
Conditions: 96 h, five-fold concentration gradient
Description: Compounds were administered at the expected concentration for the expected time in MV-4-11 cell lines. After being washed twice with PBS, cells were lysed with RIPA buffer, protease inhibitors (PMSF, MCE, New York, NY, USA), and phosphatase cocktails II (MCE, USA) for 1 h. The mixture was centrifuged at 12000 rpm for 15 min. The total protein content was quantified by BCA kit (Beyotime, Shanghai, China). Equivalent proteins were electrophoresed through 8~10% SDS-PAGE and then transferred on to polyvinylidene difluoride membranes (Millipore, Burlington, MA, USA). Subsequently, block the membrane for 1~2 h by 5% (w/v) skim milk (BD, Columbus, OH, USA). Proteins were detected using primary antibodies, followed by HRP-conjugated secondary antibodies, and visualization was performed using ECL (Vazyme Biotech, Beijing, China) as the HRP substrate. The target blots were detected with chemiluminescence system (Tanon, Shanghai, China). The densitometric analysis was performed with Image J software.
Western blot analysis of PRMT5 substrate sDMA, as indicated in MV-4-11 cancer cells treated with the indicated compounds for 96 h. β-Tubulin was used as a loading control. (B) The relative strength of sDMA signal on the Western blots was measured by densitometry. The data are shown as the mean ± SD of three independent experiments.

O=C(NC[C@H](O)CN1CCc2ccccc2C1)c1ccc2c(c1)c1c(n2CC2COC2)CCCC1 [Compound 20, (S)-N-(3-(3,4-dihydroisoquinolin-2(1H)-yl)-2-hydroxypropyl)-9-(oxetan-3-ylmethyl)-2,3,4,9-tetrahydro-1H-carbazole-6-carboxamide]
sDMA protein expression: concentration-dependent decrease in sDMA

— article PMC9572541, “Design, Synthesis and Biological Evaluation of Novel and Potent Protein Arginine Methyltransferases 5 Inhibitors for Cancer Therapy” (Molecules, 2022)
